{"source": "patent US20110086809A1", "about": "“Enteral Administration Of Arginine-Glutamine Dipeptide To Support Retinal, Intestinal, Or Nervous System Development” (priority 2009, published 2011)", "key": {"[1]": {"system": "neonatal mouse model of oxygen-induced retinopathy", "assay": "Neonatal mouse model of oxygen-induced retinopathy, pre-retinal nuclei count", "format": "in vivo", "conditions": "FIG. 1", "protocol": "In the neonatal mouse model of oxygen-induced retinopathy, 7-day old mice are placed with their nursing dams in a 75% oxygen atmosphere for 5 days. Mouse pups receive twice a day gavage feedings of arginine-glutamine dipeptide or control solution (50 μL) starting on postnatal day 12 (P12) and continuing through postnatal day 17 (P17). Gavage feeds include a control (0.9% sodium chloride) and the test compounds and different doses of arginine-glutamine dipeptide (1.0, 2.5 and 5 g/kg·day). The daily dosage of the dipeptide is divided evenly between the two daily gavage feedings.\nAfter the fifth day following return to normoxia (P17), the animals are euthanized by injection of a lethal dose of a combination of ketamine (70 mg/kg body weight) and xylazine (15 mg/kg body weight) followed by cervical dislocation. The eyes are removed and fixed in 4% paraformaldehyde, embedded in paraffin, and sectioned. Pre-retinal nuclei are counted by masked observers. Efficacy of treatment is calculated as the percent average nuclei per section in the eyes of arginine-glutamine dipeptide treated animals versus control animals.\nSome of the eyes are taken for qualitative retinal flatmount analysis. For these mice, at the time of euthanasia, the mice are perfused with fluorescein isothiocyanate-labeled dextran to visualize the vasculature. […]"}, "[2]": {"system": "intestinal injury induced by hyperoxia in a mouse model", "assay": "Histological intestinal damage score in hyperoxia-exposed neonatal mice", "format": "in vivo", "conditions": "ileum histology, score 0 to 4+ (0=no damage, 4=severe damage); hyperoxic conditions plus dipeptide by gavage; hyperoxia alone 3.5; FIG. 2", "protocol": "(§1) In the neonatal mouse model of oxygen-induced retinopathy, 7-day old mice are placed with their nursing dams in a 75% oxygen atmosphere for 5 days. Mouse pups receive twice a day gavage feedings of arginine-glutamine dipeptide or control solution (20 μL) starting on postnatal day 12 (P12) and continuing through postnatal day 17 (P17). In one experiment, different dosages of arginine-glutamine dipeptide (1.0, 2.5 and 5 g/kg·day as a hydrochloride salt, Bachem, Babendorf, Switzerland) are tested. In a second experiment, arginine-glutamine dipeptide (5 g/kg day) is given and a normoxia group is used as a control.\n(§2) After the fifth day following return to normoxia (P17), the animals are euthanized by injection of a lethal dose of a combination of ketamine (70 mg/kg body weight) and xylazine (15 mg/kg body weight) followed by cervical dislocation.\nIntestinal injury is evaluated using histological techniques. A portion of intestine from the ileum is fixed in 10% (w·v) neutral buffered formalin for 24 hours for light microscopy. The intestine is paraffin embedded, cut into 4 μm sections, mounted on glass slides, and stained with hematoxylin and eosin according to standard procedures. Histological analyses are performed using a damage scoring system from 0 to 4+ (0=no damage, 4=severe damage with mucosal sloughing) to determine the severity of the intestinal injury."}, "[3]": {"system": "Bcl-2", "assay": "Brain Bcl-2 levels by immunoblotting in hyperoxia-exposed neonatal mice", "format": "in vivo", "conditions": "mouse brain, hyperoxic conditions, treated with dipeptide; FIG. 3", "protocol": "as §1, §2\nBcl-2 levels are determined using standard immunoblotting techniques. The brain is homogenized with a Polytron homogenizer, and the homogenates are stored in aliquots at −80° C. Gel electrophoresis is performed using the BioRad electrophoresis system (Carlsbad, Calif.). […] Protein bands are quantified by densitometry."}, "[4]": {"system": "caspase-3", "assay": "Brain caspase-3 colorimetric activity assay in hyperoxia-exposed neonatal mice", "format": "in vivo, mouse", "conditions": "compared to hyperoxic mice; FIG. 4", "protocol": "as §1, §2\nCaspase-3 activity is determined using a Caspase-3 Colorimetric Activity Assay Kit (Chemicon International, Inc., Temecula, Calif.). The brain is homogenized with a Polytron homogenizer, and the homogenates are stored in aliquots at −80° C."}}}
{"substance": "arginine-glutamine dipeptide", "values": [{"measurement": "dose/response of reduction of nuclei per section", "setting": "[1]; dosages between 1 g/kg·day and 5 g/kg·day, highest effectiveness at 5 g/kg·day", "result": "highest level of effectiveness was shown at 5 g/kg·day"}, {"measurement": "average number of nuclei per section in the eyes", "setting": "[1]; neonatal mice exposed to hyperoxia (75% oxygen, 5 days), gavage twice a day P12-P17, 1, 2.5 and 5 g/kg·day, versus control (0.9% sodium chloride)", "result": "decreased at all levels of administration"}, {"measurement": "average intestinal damage score", "setting": "[2]", "result": 1.67}, {"measurement": "increased Bcl-2 expression in brain", "setting": "[3]", "result": 33, "unit": "%"}, {"measurement": "reduction in brain caspase-3 activity", "setting": "[4]", "result": 32, "unit": "%"}]}
